Results published in ChEMBL document CHEMBL1201862, “PubChem BioAssay data set” (2004).
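Step 1: Grow cells in 96-well plates. Step 2: Expose to compound for 48 hours at 5 concentrations. Step 3: Interpolate endpoints linearly; if unreached, use highest concentration. GI50 is the concentration that inhibits growth by half.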 Activity calls are given as the source filed them. Rule as the data show it: active = GI50 up to about 1.1 µM and inactive = higher.

What was measured:
Test in all cases: inhibition of tumour cell growth, NCI panel, 48 h
[1] = test system: A549
[2] = test system: CAKI-1
[3] = test system: HCC 2998
[4] = test system: HOP-62
[5] = test system: Hs-578T
[6] = test system: MDA-MB-231
[7] = test system: MDA-MB-435
[8] = test system: MOLT-4
[9] = test system: NCI-H522
[10] = test system: OVCAR-3
[11] = test system: OVCAR-4
[12] = test system: OVCAR-5
[13] = test system: OVCAR-8
[14] = test system: PC-3
[15] = test system: RPMI-8226
[16] = test system: SF-295
[17] = test system: SK-MEL-2
[18] = test system: SN12C
[19] = test system: SNB-75
[20] = test system: U-251

Measured: GI50

CC(C)C(NC(=O)C(Cc1ccccc1)NC(=O)[C@H]1CCC[C@H]1NC(=O)C(N)Cc1ccc(O)cc1)C(N)=O (stereo not given in full)
inactive: [1] > 100 µM | [2] > 100 µM | [3] > 100 µM | [4] > 100 µM | [5] > 100 µM | [6] > 100 µM | [7] > 100 µM | [8] > 100 µM | [9] > 100 µM | [10] > 100 µM | [11] > 100 µM | [12] > 100 µM | [13] > 100 µM | [14] > 100 µM | [15] > 100 µM | [16] > 100 µM | [17] > 100 µM | [18] > 100 µM | [19] > 100 µM | [20] > 100 µM

C[C@H]1CC[C@@H]2[C@@H](C)[C@H]3[C@H](C[C@H]4[C@@H]5CC=C6C[C@@H](O)CC[C@]6(C)[C@H]5C[C@H](O)[C@]34C)N2C1
inactive: [1] > 100 µM | [2] > 100 µM | [3] > 100 µM | [4] > 100 µM | [5] > 100 µM | [6] > 100 µM | [7] > 100 µM | [8] > 100 µM | [9] > 100 µM | [10] > 100 µM | [11] > 100 µM | [12] > 100 µM | [13] > 100 µM | [14] > 100 µM | [15] > 100 µM | [16] > 100 µM | [17] > 100 µM | [18] > 100 µM | [19] > 100 µM | [20] > 100 µM
